# Literature values, collected in patent US20030235623A1, “Aqueous disinfecting compositions with rapid bactericidal effect” (priority 2002, published 2003).
# System: some bacteria
structure (smiles),measurement,value
OO [Hydrogen peroxide],concentration known to inhibit the growth of some bacteria,25 mg/L
